The results in this text go back to ChEMBL document CHEMBL1156345, “Suillusin, a unique benzofuran from the mushroom Suillus granulatus” (J Nat Prod, 2001).

Experiment [1] deals with Radical scavenging activity. The experiment in a line: Antioxidant activity assessed as DPPH radical scavenging activity at 100 ug/mL. The experiment is classed as functional.
In experiment [2] the test system is SW-620. In words: Cytotoxicity against human SW620 cells after 48 hrs by SRB assay. The experiment is classed as functional, cell-based. The settings on record: SW-620, 48 h.
Experiment [3] relates to HCT-15. In words: Cytotoxicity against human HCT15 cells at 30 ug/mL after 48 hrs by SRB assay. The experiment is classed as functional, cell-based.
The test system of experiment [4] is PC-3. The experiment in a line: Cytotoxicity against human PC3 cells at 30 ug/mL after 48 hrs by SRB assay. The experiment is classed as functional, cell-based.
For experiment [5], the system named is A549. In words: Cytotoxicity against human A549 cells at 30 ug/mL after 48 hrs by SRB assay. The experiment is classed as functional, cell-based.
Experiment [6] concerns UACC-62. In words: Cytotoxicity against human UACC62 cells after 48 hrs by SRB assay. The experiment is classed as functional, cell-based. The settings on record: UACC-62, 48 h.
Experiment [7] deals with SK-OV-3. In words: Cytotoxicity against human SKOV3 cells at 30 ug/mL after 48 hrs by SRB assay. The experiment is classed as functional, cell-based.

Converted amounts (≈) assume the structure as drawn. The source made the active and inactive calls. The rule behind the calls is not given here.

`COC(=O)[C@@]12Oc3ccc(O)cc3[C@@H]1C(=O)C(O)=C2c1ccc(O)c(O)c1` [SUILLUSIN]: the Activity in experiment [1] came to 30%. In addition, the half-maximal inhibitory concentration (IC50) in experiment [2] turned out to be 20 µg/mL (≈ 54 µM); in experiment [6], 12 µg/mL (≈ 32.4 µM). The outcome in experiment [3], in experiment [4], in experiment [5] and in experiment [7] was Active.
As to VITAMIN E, in experiment [1], the Activity was determined as 73%.
